Data as given in article PMC3493464, “Functional Analysis of Metabolic Channeling and Regulation in Lignin Biosynthesis: A Computational Approach” (PLoS Computational Biology, 2012).

Columns and labels:
[1] = biological target: T1, CCoAOMT (caffeoyl CoA O-methyltransferase) (Medicago sativa, UniProt Q40313); experiment: HPLC assay of feruloyl CoA formation; format: biochemical; settings: 20, 30 or 40 µM caffeoyl CoA; 200 µM S-adenosyl methionine, 600 µM MgCl2, 2 mM DTT, pH 7.5, 30 °C
T1 construct: gene CCOMT; alfalfa cDNA in pET15b, His-tagged, expressed in E. coli Rosetta, Ni-NTA purified; tag removal not mentioned

[2] = biological target: T1, CCoAOMT (caffeoyl CoA O-methyltransferase); experiment: HPLC assay of feruloyl CoA formation; format: biochemical; settings: putative activator; 2 µM caffeyl aldehyde, 20 µM caffeoyl CoA, 200 µM S-adenosyl methionine, 600 µM MgCl2, 2 mM DTT, 4% DMSO, pH 7.5, 30 °C

T1 sequence (Q40313 whole entry): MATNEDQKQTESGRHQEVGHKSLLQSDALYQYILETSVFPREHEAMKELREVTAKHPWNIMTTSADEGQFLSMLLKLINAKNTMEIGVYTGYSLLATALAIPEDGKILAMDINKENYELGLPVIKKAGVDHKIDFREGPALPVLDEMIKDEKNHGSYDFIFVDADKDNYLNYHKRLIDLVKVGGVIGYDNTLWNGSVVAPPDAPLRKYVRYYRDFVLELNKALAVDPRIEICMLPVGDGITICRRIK

Row | SMILES | HPLC assay of feruloyl CoA formation [1] | % increase in activity at 2 μM [2] [%]
1 | CC(C)(COP(=O)(O)OP(=O)(O)OC[C@H]1O[C@@H](n2cnc3c(N)ncnc32)[C@H](O)[C@@H]1OP(=O)(O)O)[C@@H](O)C(=O)NCCC(=O)NCCSC(=O)/C=C/c1ccc(O)c(O)c1 [caffeoyl CoA] | assayed the purified recombinant enzyme with caffeoyl CoA as substrate | –
2 | O=C/C=C/c1ccc(O)c(O)c1 [caffeyl aldehyde] | – | 16
